Experimental findings from patent US20100111943A1, “COMPOSITIONS AND METHODS FOR INHIBITING CANCER METASTASIS” (Medical College of Georgia Research Institute, Inc, priority 2007, published 2010) are described below.

Entries after “also recorded” stand apart in the source; their conditions may differ.

In test [1] the test system is hsp90α. The test is described as follows: Acetylation of hsp90α in MB-231 cells (immunoblot with anti-AcK69-hsp90α antibody). The class given is cell-based. The note with it: MB-231 cells treated with LBH589. The text has this:
Next, a polyclonal antibody was generated against the acetylated K69-containing peptide of hsp90α (anti-Ac-K69). The specificity of the antibody was confirmed by determining its ability to detect the increase in the acetylation of the ectopically expressed […] hsp90α following treatment with the HDAC inhibitor LBH589. MB-231 cells were transfected with F-hsp90α followed by the treatment with LBH589. Immunoprecipitates of F-hsp90α with anti-M2 conjugated beads were immunoblotted with anti-K69-hsp90α antibody for the acetylation status and anti-F antibody for F-hsp90α expression. Cells transfected with empty vector followed the treatment with LBH589 served as control for specificity. Acetylation of endogenous hsp90αinduced by LBH589 was also detected with anti-AcK69-hsp90α antibody. Immunoprecipitates of endogenous hsp90α with anti-hsp90α antibody from cell lysates of MB-231 cells treated with or without LBH589 were immunoblotted with either anti-AcK69-hsp90α or anti-hsp90α (rabbit) antibody. IgG served as the control for specificity of the immunoprecipitates.
(In general: Immunoblotting shows a protein as a band on a membrane.)

The test system of another test is K/R mutants of hsp90α. In words: B-GA binding assay, HEK293 lysates expressing F-hsp90 K/R substitutions. The procedure: (§1) Biotinylated (B)-GA binding to hsp90 was assessed as described previously 26. Briefly, cell-lysates were incubated with or without 17-AAG (Developmental Therapeutics Branch of CTEP/NCI/NIH) for 1 hour at 4° C., and then incubated with B-GA to displace 17-AAG from hsp90 for another 1 h. GM-bound hsp90 was captured by biotin-GA linked to streptavidin Mutein Matrix (Roche Diagnostics, Indianapolis, Ind.) for 1 h at 4° C. The unbound supernatant was removed and the beads were washed three times with lysis buffer. The precipitates were immunoblotted for hsp90.
Following treatment with either vehicle or 100 nM of LBH, cell lysates from HEK293 cells expressing F-hsp90 or K/R substitutions were incubated with vehicle or 50 nM of 17-AAG followed by incubation with B-GA and streptavidin coated agarose beads. Precipitates from streptavidin coated beads were analyzed with anti-F antibody.

Test [2] addresses T1, hsp90α (Homo sapiens, UniProt P07900).
T1 construct: acetylation of the endogenous hsp90α due to treatment with LBH589; endogenous in cells; host or cells: MDA-MB-468
The test is described as follows: Biotinylated-geldanamycin (B-GA) binding assay, MDA-MB-468 cell lysates. The protocol: as §1
Cell lysates containing hsp90α and ATP-sepharose were also incubated with B-GA followed by streptavidin coated agarose beads and eluted proteins were analyzed with anti-F antibody. […] MB-468 cells cultured in DMEM medium containing 10% FBS were treated with the indicated concentration of LBH589 for 16 hours. Following this, cell lysates were incubated with B-GA followed by streptavidin coated agarose beads and eluted proteins were analyzed with anti-hsp90α antibody. Acetylation and expression level of endogenous hsp90 were detected with anti-AcK and anti-hsp90 antibody, respectively.
MB-468 cells ectopically expressing F-hsp90α were treated with 100 nM of LBH589 for 16 hours. Following this, equal amount of cell lysates were incubated with 0, 5, 10 or 50 nM of 17-AAG for 30 min at 4° C., followed by incubation with B-GA and streptavidin-coated agarose beads. Precipitates from streptavidin coated beads were analyzed with anti-F antibody.

Test [3] has as its system acetylated hsp90α with MMP-2. The test is described as follows: Extracellular co-immunoprecipitation of acetylated hsp90α with MMP-2, MDA-MB-231 supernatant. The test is classed as cell-based. The note with it: supernatant of serum starved LBH treated MDA-MB-231 cells. The protocol: Supernatant of serum starved LBH treated MDA-MB-231 cells was concentrated and immunoprecipitates with anti-hsp90α antibody were immunoblotted with anti-AcK, anti-MMP-2 or hsp90α antibody. […] Whether increased extracellular location of K69Q, K100Q or K558Q mutant promotes in vitro invasiveness of breast cancer cells was determined. For this, stable transfectants of MB-468 cells expressing the wild-type hsp90α we created, or the K/Q or K/R mutants of hsp90α at the residues K69, K100 and K558, and their in vitro invasiveness in the matrigel-based assay was evaluated.

Another test has as its system MB-231 cells. In words: In vitro matrigel invasion assay, MB-231 cells. The note with it: 10, 20, 40 nM LBH589 (FIG. 1A). The test is classed as cell-based. The procedure:
In vitro invasion assay were performed, as previously described 12, 27 by using the Cultrex® Cell Invasion Assay kit (RandD Systems, Minneapolis, Minn.). In brief, serumstarved cells in 50 μL serum-free medium with or without antibody or IgG were placed in the top chamber and allowed to invade for 24 hours. The lower chambers (assay chamber) were filled with 10% FBS medium. After incubation, migrated cells on the […] chamber of the membrane were dissociated with cell dissociation solution containing Calcein AM at 37° C. for 1 hour and read the bottom plate at 485 nm excitation and 520 nm emission.
The effect of anti-hsp90α with anti-Ac-K69 hsp90α antibody on the in vitro invasiveness of MB-231 breast cancer cells was compared. Serum-starved MB-231 cells treated with 20 μg/mL anti-hsp90α or anti-AcK69 hsp90α antibody were used for determining in vitro matrigel invasion (see Example 4 for protocol). Untreated cells, or cells treated with IgG were used as controls.

Test [4] deals with hsp90α. In words: Export and extracellular localization of hsp90α from serum-starved T47D cells (immunoblot of medium). The test is classed as cell-based. The source says:
Previous reports have shown that the inducible isoform hsp90α, but not hsp90β, can be secreted and found on the surface of cancer cells, although it lacks the classical signal sequence (Eustace, B. K., et al., Nat Cell Biol., 6:507-14 (2004); Eustace, B. et al., Cell Cycle., 3:1098-1100 (2004)). […] Concentrated extra-cellular medium or cell lysates from T47D cells, which were either serum-starved or cultured in 10% FBS, were immunoblotted with anti-hsp90α antibody. β-actin served as a loading control. Under starvation, both endogenous and exogenous hsp90α are secreted from T47D cells in the acetylated form. Extra-cellular hsp90α was immunoprecipitated with anti-AcK antibody and immunoblotted with either anti-hsp90α or M2 antibody.
To further verify this, the export and extracellular location of acetylation mimetic (K/Q) or acetylation-resistant (K/R) mutants transfected into T47D cells that were cultured under serum-free condition were determined. In serum-starved T47D cells, K/R substitutions at K69, K100 and K558 decrease, while K/Q substitutions increase the level of extracellular hsp90α. Supernatants of serum starved T47D cells transfected with the F-tagged hsp90α mutant constructs K69Q, K100Q, K292Q, K327Q, K478Q, K546Q, and K558Q were concentrated and immunoblotted with anti-F antibody. Coomassie-stained non-specific proteins served as the loading control. […]

A further test relates to acetylated hsp90α. The test is described as follows: Confocal microscopy of membrane-associated acetylated hsp90α, MB-231 cells. The test is classed as cell-based. The note with it: serum-starved MB-231 cells, 40 nM LBH589 for 16 hours, anti-Ac-K69 staining. The protocol: MDA-MB-231 cells were cultured in a chamber slide in RPMI medium with 10% FBS or under serum-free conditions with or without 40 nM LBH589 for 16 hours and stained with anti-acetyl (Ac)-[…] antibody. Briefly, after 16 hours incubation, cells were washed with PBS and fixed with 4% paraformaldehyde for 10 minutes. Following this, the slides were blocked with 3% BSA for 30 minutes and incubated with primary antibody at a dilution of 1:100 in blocking buffer for 2 hours. Following three washes with PBS the slides were incubated in Alexa Fluor 488 anti-rabbit secondary antibody (Molecular probes, Invitrogen) for one hour at 1:3000 dilution. After three washes with PBS, the cells were counterstained with DAPI using Vectashield mountant with DAPI and imaged using Zeiss LSM510 confocal microscope. […] Serum-starved MB-231 cells were treated with 40 nM LBH589 for 16 hours, followed by staining with anti-AcK69 hsp90α antibody and confocal microscopy. Cells cultured in RPMI with 10% FBS and cells stained with rabbit IgG served as controls.

The next test concerns F-hsp90α. In words: Acetylation of F-hsp90α in HEK293 cells (immunoprecipitation, anti-AcK immunoblot). The test is classed as cell-based. The note with it: HEK293 cells with ectopic expression of FLAG (F)-hsp90α. The procedure: Following culture in the plates for 24 hours, cells were transfected by Lipofectamine Plus following the protocol provided by Invitrogen (Carlsbad, Calif.). Transfected cells were cultured in full-medium containing drugs dissolved in DMSO or vehicle for 24 hours. Cellular extracts were prepared by directly adding lysis buffer (25 mM Tris-phosphate, pH 7.8, 2 mM DTT, 2 mM 1,2-diaminocyclohexane-N′,N′,N′,N′-tetraacetic acid, 10% glycerol, 0.2% Triton X-100) to the cells on ice. For immuno-precipitations (IP), 2×10^6 cells in 100 mm dishes were transfected and/or treated as described above. Cellular extracts were prepared and immunoprecipitation performed as described 24. For immunoblotting, cellular extracts or immunoprecipitates were separated on SDS-PAGE, transferred to a nitrocellulose membrane, probed with antibodies, and visualized with enhanced chemiluminescence, as described (Chen, Z., et al., Mol. Pharmacol., 69:1527-33 (2006)).
Hsp90 is acetylated both in vitro and in vivo. […] To determine whether p300 acts as the HAT for hsp90α, following incubation with p300 and acetyl-CoA, in vitro translated hsp90α was analyzed for its acetylation status by Western analysis with anti-AcK antibody. p300 was necessary for the acetylation of hsp90α in the in vitro assay. […] In HEK293 cells, it was determined that p300 can be coimmunoprecipitated with hsp90α. […]

Consider `Cc1[nH]c2ccccc2c1CCNCc1ccc(/C=C/C(=O)NO)cc1` [LBH589], for which the “acetylated hsp90α detected by anti-Ac-K69 hsp90α antibody” value in the test with hsp90α [1] is recorded as “increase in the acetylated hsp90α”. In addition, in the test with K/R mutants of hsp90α (HEK293 cells, 100 nM LBH), the “B-GA binding of K/R mutants of hsp90α” value is given as “increased binding to B-GA”. Besides, the “B-GA binding of hsp90α” value at hsp90α [2] (MDA-MB-468 cells treated with LBH589 for 16 hours) was “increase in B-GA binding of hsp90α”. On hsp90α [2] (MDA-MB-468 cells, 100 nM LBH589 for 16 hours, then lysates with 0, 5, 10 or 50 nM 17-AAG), the “17-AAG binding to acetylated endogenous hsp90” value is listed as “promoted 17-AAG binding to the acetylated endogenous hsp90”. Also, the “extra-cellular binding of acetylated hsp90α with MMP-2” value in test [3] was “increased extra-cellular binding of acetylated hsp90α with MMP-2”. Also, in the test with MB-231 cells, the “matrigel invasion by MB-231 cells” value was “dose dependently increased matrigel invasion”. Moreover, the “export and extracellular location of K/R mutants of hsp90α” value with hsp90α [4] (serum-starved T47D cells transfected with K/R mutants, cotreatment with LBH589) is “increased the export and extracellular location of K/R mutants of hsp90α to a variable extent; also recorded: promote extracellular localization of K/R mutants of hsp90α”. Besides, the “export and extracellular localization of hyper-acetylated hsp90α” value in the test with hsp90α [4] (serum-starved T47D cells, 0, 25, 50 or 100 nM LBH589) is “promoted and increased the export and extracellular localization of hyper-acetylated hsp90α; also recorded: occurs in a dose dependent manner”. The “levels of membrane associated acetylated hsp90α” value with acetylated hsp90α is listed as “increased levels of the membrane associated acetylated hsp90α”. The “acetylation of F-hsp90α” value with F-hsp90α is “hyper-acetylation of F-hsp90α”.
As to `O=C(CCCCCCC(=O)Nc1ccccc1)NO` [vorinostat], in the test on F-hsp90α, the “acetylation of F-hsp90α” value is “hyper-acetylation of F-hsp90α”.
Turning to “17-allylamino-17-demethoxygeldanamycin [17-AAG]”, the “17-AAG binding to K/R mutants (displacement of B-GA)” value with K/R mutants of hsp90α (HEK293 lysates after 100 nM LBH, 50 nM 17-AAG) is given as “decreased binding of K/R mutants to 17-AAG”. For the same compound, on hsp90α [2] (lysates incubated with 0, 5, 10 or 50 nM 17-AAG for 30 min at 4° C., cells exposed or unexposed to LBH589), the “displacement of B-GA binding to hsp90” value is “B-GA binding to hsp90 was reduced by 17-AAG treatment”.
